Experimental data: patent US20150079673A1, “HEPATOCYTES IN CO-CULTURE AND USES THEREOF” (Colorado State University Research Foundation, priority 2013, published 2015)

Key:
Format in all cases: cell-based
[1] = system: human hepatocytes maintained in micropatterned co-culture with 3T3-J2 murine embryonic fibroblasts; assay: Gluconeogenesis (glucose production) in glycogen-depleted MPCC; details: at 24 hours, following a varying dose of metformin; FIG. 9B
Experimental: To test for gluconeogenesis in diabetic hepatocytes in co-culture, the MPCC hepatocyte cultures comprising diabetic versus non-diabetic cells were subjected to glucose-free medium for 24-48 hours, thereby depleting the resident glycogen stores so that cells were only able to perform gluconeogenesis in the presence of the glucose precursors lactate and pyruvate. Gluconeogenesis rate was measured by incubating glycogen-depleted cultures with the substrates pyruvate and lactate, in glucose-free medium and glucose measurement in medium (Amplex Red) at 24 hours, thereby isolating the contribution of gluconeogenesis to glucose production, from potential residual glucose output due to glycogen depletion.
Cells were also tested under the glycogen depletion conditions as described above, for the effect of hormones on glucose production. The MPCCs were subjected to glycogen depletion for 12 hours, followed by stimulation of gluconeogenesis using lactate or pyruvate, in the presence or absence of insulin, glucagon or dexamethasone. Released glucose was measured 24 hours later.

[2] = system: human hepatocytes maintained in micropatterned co-culture with 3T3-J2 murine embryonic fibroblasts; assay: Glycogen synthesis in MPCC, PAS stain of intracellular glycogen; details: glycogen-depleted, 5 mM glucose + 100 nm hormone, 24 hours after treatment; FIG. 11B
Experimental: (§1) Glycogen lysis and glycogen synthesis in MPCC hepatocytes was also studied. The rate of glycogen lysis in MPCCs was measured by incubating cultures with glucose-free/hormone-free medium for 48 hours (fasting), followed by fixation of cultures using 4% paraformaldehyde and staining of intracellular glycogen (periodic acid Schiff stain (“PAS stain”)). The rate of glycogen synthesis was measured by first depleting glycogen stores as described above, followed by addition of glucose to medium (feeding) and staining of glycogen at specific time-points. Results at 24 hours are shown in FIGS. 11A-B. FIG. 11A is a panel of four photomicrographs of human hepatocytes maintained in micropatterned co-culture with 3T3-J2 murine embryonic fibroblasts, indicating glycogenolysis in the cells under four conditions: 25 mM glucose, glucose free, glucose free+100 nm glucagon, and glucose free+100 nm insulin, 24 hrs after treatment. […] MPCCs were cultured in glucose free media for 2 days and depleted of all glycogen prior to the addition of 5 mM glucose. […]

[3] = system: human hepatocytes maintained in micropatterned co-culture with 3T3-J2 murine embryonic fibroblasts; assay: Glycogen lysis in MPCC, PAS stain of intracellular glycogen; details: glucose free medium + 100 nm hormone, 24 hrs after treatment; FIG. 11A
Experimental: as §1

Molecule | glucose production (gluconeogenesis) [1] | glycogen synthesis (intracellular glycogen, PAS stain) [2] | glycogenolysis (intracellular glycogen, PAS stain) [3]
CN(C)C(=N)N=C(N)N [metformin] | dose-dependent blockage | – | –
glucagon | – | did not synthesize glycogen | at a higher rate when stimulated by glucagon
insulin | – | at a higher rate when stimulated by insulin | continued storing glycogen
